In the supplement of paper PMC10307832:

Experiments:
Assay in all cases: relative viability (nuclei count vs DMSO), 5 days (fraction); higher = more cells survive
[1] = test system: ABC-1
Outline: (§1)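 Relative viability was taken as the ratio of nuclei in treated wells to nuclei in vehicle wells. Lung cancer cell lines in 1536-well plates received compounds by pin tool one day after seeding, either one drug alone or a fixed anchor-drug dose plus five library-drug doses (not always all listed) in √10 steps. Nuclei were counted on 4× images after 5 days of treatment, and values are medians of duplicate plates.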

[2] = test system: EMC-BAC-2
Outline: as §1

[3] = test system: LCLC-97TM1
Outline: as §1

[4] = test system: NCI-H1355
Outline: as §1

[5] = test system: NCI-H1666
Outline: as §1

[6] = test system: NCI-H1755
Outline: as §1

[7] = test system: NCI-H1793
Outline: as §1

[8] = test system: NCI-H1944
Outline: as §1

[9] = test system: NCI-H1975
Outline: as §1

[10] = test system: NCI-H1993
Outline: as §1

[11] = test system: NCI-H2009
Outline: as §1

[12] = test system: NCI-H2126
Outline: as §1

[13] = test system: NCI-H2170
Outline: as §1

[14] = test system: NCI-H2347
Outline: as §1

[15] = test system: NCI-H441
Outline: as §1

[16] = test system: NCI-H460
Outline: as §1

[17] = test system: NCI-H520
Outline: as §1

[18] = test system: NCI-H647
Outline: as §1

[19] = test system: NCI-H727
Outline: as §1

[20] = test system: PC-14
Outline: as §1

[21] = test system: PC-3 [JPC-3]
Outline: as §1

[22] = test system: SK-LU-1
Outline: as §1

[23] = test system: SW 1573
Outline: as §1

`Cc1cnc(-c2cnc(NCCNc3ccc(C#N)cn3)nc2-c2ccc(Cl)cc2Cl)[nH]1` + COc1cccc2cc(-c3nc([C@H]4CC[C@H](C(=O)O)CC4)n4ncnc(N)c34)[nH]c12 [OSI-027] (partner 0.5 µM) showed a relative viability ([1]; first compound 0.08 µM) of 0.751, a relative viability ([1]; first compound 0.253 µM) of 0.411 and a relative viability ([1]; first compound 0.8 µM) of 0.553. The relative viability ([1]; first compound 2.53 µM) was 0.649, the relative viability ([2]; first compound 0.08 µM) was 0.407 and the relative viability ([2]; first compound 0.253 µM) was 0.37. The relative viability ([2]; first compound 0.8 µM) was 0.341, the relative viability ([2]; first compound 2.53 µM) was 0.447 and the relative viability ([3]; first compound 0.08 µM) was 0.648. The relative viability ([3]; first compound 0.8 µM) was 0.646, the relative viability ([3]; first compound 2.53 µM) was 0.688 and the relative viability ([4]; first compound 0.08 µM) was 0.404. The relative viability ([4]; first compound 0.253 µM) was 0.434, the relative viability ([4]; first compound 0.8 µM) was 0.395 and the relative viability ([4]; first compound 2.53 µM) was 0.439. For the same compound, the relative viability ([5]; first compound 0.08 µM) was 0.828, the relative viability ([5]; first compound 0.253 µM) was 0.77 and the relative viability ([5]; first compound 0.8 µM) was 0.894. For the same compound, the relative viability ([5]; first compound 2.53 µM) was 0.903, the relative viability ([6]; first compound 0.08 µM) was 0.81 and the relative viability ([6]; first compound 0.253 µM) was 0.737. The relative viability ([6]; first compound 0.8 µM) was 0.726, the relative viability ([6]; first compound 2.53 µM) was 0.756 and the relative viability ([7]; first compound 0.08 µM) was 0.322. The relative viability ([7]; first compound 0.253 µM) was 0.276, the relative viability ([7]; first compound 0.8 µM) was 0.191 and the relative viability ([7]; first compound 2.53 µM) was 0.279. It also gave a relative viability ([8]; first compound 0.08 µM) of 0.422, a relative viability ([8]; first compound 0.8 µM) of 0.489 and a relative viability ([8]; first compound 2.53 µM) of 0.685. The relative viability ([9]; first compound 0.08 µM) was 0.839, the relative viability ([9]; first compound 0.253 µM) was 0.647 and the relative viability ([9]; first compound 0.8 µM) was 0.6. For the same compound, the relative viability ([9]; first compound 2.53 µM) was 0.399, the relative viability ([10]; first compound 0.08 µM) was 0.568 and the relative viability ([10]; first compound 0.253 µM) was 0.49. For the same compound, the relative viability ([10]; first compound 0.8 µM) was 0.536, the relative viability ([10]; first compound 2.53 µM) was 0.577 and the relative viability ([11]; first compound 0.08 µM) was 0.729. It also gave a relative viability ([11]; first compound 0.253 µM) of 0.597, a relative viability ([11]; first compound 0.8 µM) of 0.609 and a relative viability ([11]; first compound 2.53 µM) of 0.496. The relative viability ([12]; first compound 0.08 µM) was 0.704, the relative viability ([12]; first compound 0.253 µM) was 0.622 and the relative viability ([12]; first compound 0.8 µM) was 0.64. It also gave a relative viability ([12]; first compound 2.53 µM) of 0.776, a relative viability ([13]; first compound 0.08 µM) of 0.732 and a relative viability ([13]; first compound 0.253 µM) of 0.554. For the same compound, the relative viability ([13]; first compound 0.8 µM) was 0.705, the relative viability ([13]; first compound 2.53 µM) was 0.609 and the relative viability ([14]; first compound 0.08 µM) was 0.397. The relative viability ([14]; first compound 0.253 µM) was 0.415, the relative viability ([14]; first compound 0.8 µM) was 0.324 and the relative viability ([14]; first compound 2.53 µM) was 0.426. The relative viability ([15]; first compound 0.08 µM) was 0.739, the relative viability ([15]; first compound 0.253 µM) was 0.664 and the relative viability ([15]; first compound 0.8 µM) was 0.453. It also gave a relative viability ([15]; first compound 2.53 µM) of 0.459, a relative viability ([16]; first compound 0.08 µM) of 0.749 and a relative viability ([16]; first compound 0.253 µM) of 0.582. The relative viability ([16]; first compound 0.8 µM) was 0.675, the relative viability ([16]; first compound 2.53 µM) was 0.669 and the relative viability ([17]; first compound 0.08 µM) was 0.24. It also gave a relative viability ([17]; first compound 0.253 µM) of 0.288, a relative viability ([17]; first compound 0.8 µM) of 0.274 and a relative viability ([17]; first compound 2.53 µM) of 0.28. The relative viability ([18]; first compound 0.08 µM) was 0.752, the relative viability ([18]; first compound 0.253 µM) was 0.512 and the relative viability ([18]; first compound 0.8 µM) was 0.725. For the same compound, the relative viability ([18]; first compound 2.53 µM) was 0.55, the relative viability ([19]; first compound 0.08 µM) was 0.588 and the relative viability ([19]; first compound 0.253 µM) was 0.589. For the same compound, the relative viability ([19]; first compound 0.8 µM) was 0.518, the relative viability ([19]; first compound 2.53 µM) was 0.442 and the relative viability ([20]; first compound 0.08 µM) was 1.21. The relative viability ([20]; first compound 0.253 µM) was 0.673, the relative viability ([20]; first compound 0.8 µM) was 0.76 and the relative viability ([20]; first compound 2.53 µM) was 0.643. The relative viability ([21]; first compound 0.08 µM) was 0.831, the relative viability ([21]; first compound 0.253 µM) was 0.757 and the relative viability ([21]; first compound 0.8 µM) was 0.692. The relative viability ([21]; first compound 2.53 µM) was 0.742, the relative viability ([22]; first compound 0.08 µM) was 0.344 and the relative viability ([22]; first compound 0.253 µM) was 0.336. For the same compound, the relative viability ([22]; first compound 0.8 µM) was 0.35, the relative viability ([22]; first compound 2.53 µM) was 0.463 and the relative viability ([23]; first compound 0.08 µM) was 0.538. For the same compound, the relative viability ([23]; first compound 0.253 µM) was 0.483, the relative viability ([23]; first compound 0.8 µM) was 0.33 and the relative viability ([23]; first compound 2.53 µM) was 0.363.
